Measurements from US4191688A, “Amides of leurosine, leuroformine, desacetylleurosine and desacetylleuroformine” (Eli Lilly and Company, priority 1978, dated 1980).
“And” between values parts separate entries of the source, which are not always exact repeats. Identical values can stand only once. Like-named read-outs stand apart in the source and are kept apart here.

Legend:
[1] = tested on: Gardner lymphosarcoma; assay: Activity versus Gardner Lymphosarcoma in mice; assay type: in vivo; conditions: 9 days, usually intraperitoneal
Protocol: The following table--Table 1--gives the results of experiments in which mice bearing transplanted Gardner lymphosarcoma were treated successfully with a compound of this invention. In the table, column 1 gives the name of the compound; column 2, the dose level and column 3, the percent inhibition of tumor growth.

[2] = tested on: experimental malignancies; conditions: animals; cited from earlier work
[3] = tested on: P1534 murine leukemia; conditions: Hargrove, Lloydia 1964, cited from earlier work
[4] = tested on: tumor; conditions: Owellen 1975; Cullinan 1975; cited from earlier work
[5] = pKa titration; assay type: physicochemical; conditions: for pKa: 66 percent dmf, in 66 percent DMF
Protocol: A reaction mixture containing 450 mg. of leurosine, 15 ml. of tetrahydrofurane (THF), 8 ml. of anhydrous hydrazine, and 6 ml. of methanol were heated in a sealed glass bomb for 3 days at 50° C. The bomb was opened, the solvents removed in vacuo, and the resulting residue comprising 4-desacetylleurosine C-3 carboxhydrazide formed in the above reaction, was dissolved in methylene dichloride. The methylene dichloride solution was washed with water and dried. Removal of the solvent in vacuo yielded 4-desacetylleurosine C-3 carboxhydrazide as a residue shown by TLC to contain trace quantities of leurosine and of 4-desacetylleurosine. Pure 4-desacetylleurosine C-3 carboxhydrazide (1-spot material) was prepared by chromatographing the residue over silica using 1:1:1 methylenedichloride/ethyl acetate/methanol as the eluant. Fractions shown by TLC to contain 4-desacetylleurosine C-3 carboxhydrazide were combined.
Titration; pKa at 5.3, 7.0

[6] = tested on: P388 leukemia; assay: Activity against P388 leukemia in mice; assay type: in vivo; conditions: 3 days apart
[7] = Stability on standing in air; assay type: physicochemical; conditions: upon standing in air
[8] = titration, free base, solvent not stated

CCC12CN3CCc4c([nH]c5ccccc45)C(C(=O)OC)(c4cc5c(cc4OC)N(C)C4C(O)(C(=O)NCCO)C(O)C6(CC)C=CCN7CCC54C76)CC(C3)C1O2 (stereo not drawn) [4-Desacetylleurosine C-3 N-(β-hydroxyethyl)carboxamide]
Percent Inhibition of tumor growth ([1]; 6 mg/kg per day): 100%
Percent Inhibition of tumor growth ([1]; 12 mg/kg per day): 100% and 98%

CCC12CN3CCc4c([nH]c5ccccc45)C(C(=O)OC)(c4cc5c(cc4OC)N(C)C4C(O)(C(=O)NC)C(O)C6(CC)C=CCN7CCC54C76)CC(C3)C1O2 (stereo not shown) [4-Desacetylleurosine C-3 N-Methyl Carboxamide]
Percent Inhibition of tumor growth ([1]; 3 mg/kg per day): 33%
Percent Inhibition of tumor growth ([1]; 6 mg/kg per day): 100%
Toxicity (printed in Percent Inhibition column) ([1]; 12 mg/kg per day): Toxic

CC[C@]1(O)C[C@@H]2CN(CCc3c([nH]c4ccccc34)[C@@](C(=O)OC)(c3cc4c(cc3OC)N(C)[C@@H]3[C@]45CCN4CC=C[C@@](CC)(C[C@]3(O)C(=O)OC)[C@H]45)C2)C1 [4-desacetoxy vinblastine]
activity in the treatment of experimental malignancies [2]: active

CC[C@@]1(O)CN2CCc3c([nH]c4ccccc34)[C@@](C(=O)OC)(c3cc4c(cc3OC)N(C)[C@@H]3[C@]45CCN4CC=C[C@@](CC)(C[C@]3(O)C(=O)OC)[C@H]45)C[C@@H](C2)C1O (stereo partly shown) [4-desacetoxy-3'-hydroxyvinblastine]
activity in the treatment of experimental malignancies [2]: active

CCC1(O)CC2CN(CCc3c([nH]c4ccccc34)C(C(=O)OC)(c3cc4c(cc3OC)N(C)C3C(O)(C(=O)OC)C(O)C5(CC)C=CCN6CCC43C65)C2)C1 (stereo not shown) [4-desacetyl VLB]
toxicity [3]: toxic material
in vivo chemotherapeutic activity ([3]; P1534 murine leukemia system): little in vivo chemotherapeutic activity
anti-tumor activity [4]: active anti-tumor agent

CCC12CN3CCc4c([nH]c5ccccc45)C(C(=O)OC)(c4cc5c(cc4OC)N(C=O)C4C(O)(C(N)=O)C(O)C6(CC)C=CCN7CCC54C76)CC(C3)C1O2 (stereo not shown) [4-desacetylleuroformine C-3 carboxamide, 4-Desacetylleuroformine C-3 Carboxamide]
Percent Inhibition of tumor growth ([1]; 12 mg/kg per day): 39%

CCC12CN3CCc4c([nH]c5ccccc45)C(C(=O)OC)(c4cc5c(cc4OC)N(C)C4C(O)(C(N)=O)C(O)C6(CC)C=CCN7CCC54C76)CC(C3)C1O2 (stereo not shown) [4-desacetylleurosine C-3 carboxamine, 4-Desacetylleurosine C-3 Carboxamide]
Percent Inhibition of tumor growth ([1]; 3 mg/kg per day): 23%
Percent Inhibition of tumor growth ([1]; 6 mg/kg per day): 100%
Toxicity (printed in Percent Inhibition column) ([1]; 12 mg/kg per day): Toxic

CCC12CN3CCc4c([nH]c5ccccc45)C(C(=O)OC)(c4cc5c(cc4OC)N(C)C4C(O)(C(=O)NN)C(O)C6(CC)C=CCN7CCC54C76)CC(C3)C1O2 (stereo not shown) [4-desacetylleurosine C-3 carboxhydrazide, 4-Desacetylleurosine C-3 Carboxhydrazide]
pKa ([5]; read-out: pKa (first)): 5.32
pKa ([5]; read-out: pKa (second)): 7.12

CCC12CN3CCc4c([nH]c5ccccc45)C(C(=O)OC)(c4cc5c(cc4OC)N(C)C4C(O)(C(=O)NCCSSCCNC(=O)C6(O)C(O)C7(CC)C=CCN8CCC9(c%10cc(C%11(C(=O)OC)CC%12CN(CCc%13c%11[nH]c%11ccccc%13%11)CC%11(CC)OC%12%11)c(OC)cc%10N(C)C69)C87)C(O)C6(CC)C=CCN7CCC54C76)CC(C3)C1O2 (stereo not drawn) [Bis[β-(4-desacetylleurosine C-3 carboxamide)ethyl]disulfide disulfate]
prolongation of survival time ([6]; 15 mg/kg on three occasions): 55%
prolongation of survival time ([6]; 30 mg/kg on three occasions): 46%

CCC12CN3CCc4c([nH]c5ccccc45)C(C(=O)OC)(c4cc5c(cc4OC)N(C)C4C(O)(C(=O)NCCSSCCNC(=O)C6(O)C(O)C7(CC)C=CCN8CCC9(c%10cc(C%11(C(=O)OC)CC%12CN(CCc%13c%11[nH]c%11ccccc%13%11)CC%11(CC)OC%12%11)c(OC)cc%10N(C)C69)C87)C(O)C6(CC)C=CCN7CCC54C76)CC(C3)C1O2 (stereo not drawn) [Bis[β-(4-desacetylleurosine C-3 carboxamido)ethyl]disulfide]
pKa (first) [5, 8]: 5.3
pKa (second) [5, 8]: 7.0

CC[C@@H]1C[C@@H]2CN(CCc3c([nH]c4ccccc34)[C@@](C(=O)OC)(c3cc4c(cc3OC)N(C)[C@H]3[C@@](O)(C(=O)OC)[C@H](OC(C)=O)[C@]5(CC)C=CCN6CC[C@]43[C@@H]65)C2)C1 [deoxy VLB "A"]
activity in the treatment of experimental malignancies [2]: active

CCC1(O)CN2CCc3c([nH]c4ccccc34)C(C(=O)OC)(c3cc4c(cc3OC)N(C)C3C(O)(C(=O)OC)C(OC(C)=O)C5(CC)C=CCN6CCC43C65)CC(O)(C2)C1 (stereo not shown) [leurocolombine]
activity in the treatment of experimental malignancies [2]: active

CCC1(O)CC2CN(CCc3c([nH]c4ccccc34)C(C(=O)OC)(c3cc4c(cc3OC)N(C=O)C3C(O)(C(=O)OC)C(OC(C)=O)C5(CC)C=CCN6CCC43C65)C2)C1 (stereo not shown) [leurocristine]
activity in the treatment of experimental malignancies [2]: active

CCC12CN3CCc4c([nH]c5ccccc45)C(C(=O)OC)(c4cc5c(cc4OC)N(C=O)C4C(O)(C(=O)OC)C(OC(C)=O)C6(CC)C=CCN7CCC54C76)CC(C3)C1O2 (stereo not shown) [leuroformine]
activity in the treatment of experimental malignancies [2]: active

CC[C@]12CN3CCc4c([nH]c5ccccc45)[C@@](C(=O)OC)(c4cc5c(cc4OC)N(C)[C@H]4[C@@](O)(C(=O)OC)[C@H](OC(C)=O)[C@]6(CC)C=CCN7CC[C@]54[C@@H]76)C[C@H](C3)[C@H]1O2 [leurosine]
auto-oxidation [7]: auto-oxidizes to a 5'-hydroxy derivative
activity in the treatment of experimental malignancies [2]: active

CCC1(O)CN2CCc3c([nH]c4ccccc34)C(C(=O)OC)(c3cc4c(cc3OC)N(C)C3C(O)(C(=O)OC)C(OC(C)=O)C5(CC)C=CCN6CCC43C65)CC(C2)C1O (stereo not shown) [vincadioline]
activity in the treatment of experimental malignancies [2]: active

CCC1(O)CC2CN(CCc3c([nH]c4ccccc34)C(C(=O)OC)(c3cc4c(cc3OC)N(C)C3C(O)(C(=O)OC)C(OC(C)=O)C5(CC)C=CCN6CCC43C65)C2)C1 (stereo not shown) [vincaleukoblastine]
activity in the treatment of experimental malignancies [2]: active
